Experimental data taken from patent US20030109537A1, “Methods and materials for treating bone conditions” (priority 2001, published 2003).

Experiments:
[1] = system: genes for cytokines and their receptors; test: cDNA microarray analysis of PTH-regulated genes in proximal tibial metaphysis; type: in vivo, rat; conditions: for genes regulated (of 8500 rat genes, Affymetrix): p<0.05
Procedure: Induction of parathyroid bone disease. Three month-old female Sprague-Dawley rats (Harlan Sprague-Dawley, Inc., Indianapolis, Ind.) were randomly divided into 3 groups, with 5 rats per group. In group 1 (pulsatile or intermittent PTH), each rat received 80 μg/kg/day human PTH (1-34) (hPTH) in vehicle (150 mM NaCl, 1 mM HCl and 2% heat-inactivated rat serum) by subcutaneous (s.c.) injection once daily for 7 days. In group 2 (vehicle), an osmotic pump (Alza Corp., Mountainview, Calif.) that delivered vehicle alone at a rate of 1 μl/hr for 7 days was implanted in each rat. In group 3 (continuous PTH), an osmotic pump that delivered 40 μg/kg/day hPTH at a rate of 1 μl/hr for 7 days was implanted in each rat. On day 8, all rats were anesthetized with ketamine (50 mg/kg): xylazine HCl (5 mg/kg) and sacrificed by decapitation. Both tibiae were removed from each rat. Right tibiae were fixed by immersion in 70% ethanol then processed for bone histology to verify the appearance of peritrabecular fibrosis. Left tibiae were frozen in liquid N2 and stored at −80° C. until processed for RNA isolation.
Isolation of RNA. Frozen proximal tibial metaphyses were individually homogenized in guanidine isothiocyanate using a Spex freezer mill (Industries, Inc., Edison, N.J.). Total RNA was extracted from the homogenate using a modified organic solvent method. See Chomczynski et al., Anal. Biochem., 162:156-159 (1987). Isolated RNA yields were determined spectrophotometrically at 260 nm using standard methods.
cDNA microarray analysis. cDNA probes were generated by reverse transcription (Superscript II, Life Technologies, Rockville, Md.) using 1 μg total RNA isolated from the proximal tibial metaphysis of rats in groups 1, 2, and 3. First-strand cDNA probes were primed by the addition of oligo dT and subsequently labeled with [α-^33P]dCTP (ICN Radiochemicals Costa Mesa, Calif.). The labeled probes then were purified by passage through a Sephadex G-50 DNA Grade Column (Amersham Pharmacia Biotech AB, Uppsala, Sweden). The purified probes were hybridized to a rat genefilter microarray containing 5531 genes (GF 300; Research Genetics, Huntsville, Ala.). according to the manufacturer's recommended protocol. A micro-array system from Affymetrix, which contains 8500 genes, also was used. After hybridization, the array was washed and wrapped with plastic wrap before placing in a phosphor imaging cassette containing a Cyclone Storage Phosphor Screen (Packard, Downers Groves, Ill.). After 24 hours, the screen was imaged and the resulting images analyzed using Pathways 2.01 software to compare the signal intensities of spots.
Candidate genes associated with peritrabecular fibrosis were identified with cDNA microarrays containing 5531 or 8500 genes as described in Example 1. Approximately 14% of the total genes measured were differentially expressed by at least 2.5-fold between pulsatile and continuous PTH-treated groups. […] Of the regulated genes, 158 were unique to intermittent administration of PTH and 759 to continuous administration of PTH. An additional 158 genes were common to both treatments.
The list of candidate genes was examined to determine if any of the genes encoded growth factors. More specifically, it was determined if the differentially expressed genes were growth factors produced on or near bone surfaces, were chemotactic to fibroblasts, were able to stimulate fibroblast proliferation, or could induce bone resorption. One of the candidate genes, PDGF, a known mitogenic and chemotactic factor for fibroblasts, met all these criteria.

[2] = system: PTH-induced marrow fibrosis and osteoclast resorption; test: Bone histomorphometry in rats given trapidil, continuous PTH or both; type: in vivo, rat
Procedure: Treatment protocol. Three month-old female Sprague-Dawley rats were divided into 4 groups. In group 1 (n=9), osmotic pumps that delivered vehicle alone at a rate of 1 μl/hr for 7 days were implanted in each rat. […] In groups 3 and 4 (n=8 and 10, respectively), osmotic pumps were implanted in each rat that delivered 40 μg/kg/day hPTH at a rate of 1 μl/hr for 7 days. […] Tetracycline (20 mg/kg, Sigma Chemical Co., St. Louis, Mo.) and calcein (20 mg/kg, Sigma) fluorochrome labels were injected at the base of the tail on day 0 (tetracycline) and day 6 (calcein). On day 8, all rats were anesthetized and blood was collected by cardiac puncture. The blood samples were used to determine serum chemistry and PTH levels. Following blood collection, the rats were sacrificed by cervical dislocation, and tibiae were surgically removed and fixed in 70% ethanol for bone histomorphometry.
Bone histomorphometry. Proximal metaphyses were dehydrated in a graded series of ethanol, then infiltrated and embedded in methymethacrylate (Fisher Scientific, Fair Lawn, N.J.). […] Dynamic histomorphometric cancellous bone measurements were made in the unstained sections using fluorescent microscopy to detect the injected tetracycline and calcein markers. After obtaining the cancellous bone measurements, consecutive sections were stained with toluidine blue for bone cell and peritrabecular fibrosis measurements using light microscopy. A standard sampling site of 2.8 mm was located in the secondary spongiosa of the metaphysis at 1.5 mm distal to the growth plate.
All histomorphometric measurements were made with an Osteomeasure image analysis system (OsteoMetrics, Atlanta, Ga.) coupled to a photomicroscope and personal computer. All parameters were calculated according to standardized nomenclature. See, for example, Parfitt et al., J. Bone Miner. […] Bone volume was defined as the percentage of tissue volume consisting of cancellous bone. Tetracycline and calcein labels were determined as the percentage of bone perimeter labeled with fluorochrome. Mineral apposition rate (MAR) was defined as the average width between tetracycline and calcein label divided by interlabel time of 6 days. Bone formation rate (BFR) was defined as the product of MAR and the calcein label perimeter, and was expressed per bone surface (BFR/BS), bone volume (BFR/BV), or tissue volume (BFR/TV). Osteoblast surface was defined as a palisade of large basophilic cuboidal cells directly lying on top of the osteoid, and was expressed as a percent of bone perimeter. Osteoclast surface was defined as the bone perimeter lined by multinucleated cells regardless of the presence of erosion. Fibrotic perimeter was defined as the bone perimeter lined by multilayers of fibroblasts.
Statistical analysis. Multiple group comparisons were determined using one-way analysis of variance (one-way ANOVA) with statistical significance at P<0.05. Differences between pairs of groups were compared by the Fisher's protected least significant difference post-hoc test.
Serum and bone samples were collected after 7 days and analyzed.

[3] = continuous PTH, rat proximal tibial metaphysis, gene microarray
[4] = continuous administration of PTH
[5] = intermittent administration of PTH
[6] = rat proximal tibial metaphysis cancellous bone, day 8, trapidil 40 mg/kg/day s.c., hPTH 40 μg/kg/day continuous, mean ± SEM

human PTH (1-34)
total genes differentially expressed by at least […] between pulsatile and continuous PTH-treated groups ([1]; cDNA microarrays): Approximately 14%
BMP-1 gene expression, Fold Change [1, 3]: 1.3 fold
BMP-3 gene expression, Fold Change [1, 3]: 19 fold
BMP-6 gene expression, Fold Change [1, 3]: 1.6 fold
COX2 gene expression, Fold Change [1, 3]: 1.8 fold
FGF gene expression, Fold Change [1, 3]: 5.1 fold
FGF receptor-1 gene expression, Fold Change [1, 3]: 2.7 fold
IL-6 receptor gene expression, Fold Change [1, 3]: −1.2 fold
IL-12p40 gene expression, Fold Change [1, 3]: 1.3 fold
PGE2 receptor EP3 gene expression, Fold Change [1, 3]: 1.7 fold
PTH receptor gene expression, Fold Change [1, 3]: 3.8 fold
TGF-β1 gene expression, Fold Change [1, 3]: 1.5 fold
TGF-β3 gene expression, Fold Change [1, 3]: 1.9 fold
PDGF-A gene expression, Fold Change ([1]; continuous PTH, rat proximal tibial metaphysis, gene microarray, n = 5): 85 fold
number of regulated genes unique to the regimen [1, 4]: 759
genes regulated (of 8500 rat genes, Affymetrix) [1, 4]: 10.4%
number of regulated genes unique to the regimen [1, 5]: 158
genes regulated (of 8500 rat genes, Affymetrix) [1, 5]: 3.6%
number of regulated genes common to both treatments ([1]; intermittent and continuous PTH): 158
cancellous bone formation (per bone surface, bone volume, or tissue volume) ([2]; continuous PTH, rats): stimulated
osteoclast-lined surface (Oc.S/BS) ([2]; continuous PTH, rats, FIG. 2B): increased
peritrabecular fibrosis ([2]; continuous PTH, rats, FIG. 3): induced extensive peritrabecular fibrosis
osteoblast surface (Ob.S/BS) ([2]; continuous PTH, trapidil given with continuous PTH, FIG. 2A): increased
effect on cortical bone histomorphometry ([2]; fluorochrome-based analysis of tibial metaphyseal sections, rats): neither trapidil nor PTH treatment had any effect
BFR/BS (bone formation rate per bone surface) [2, 6]: 0.71 ± 0.10^ab μm^3/μm^2/day
BFR/BV (bone formation rate per bone volume) [2, 6]: 2.30 ± 0.31^ab %
BFR/TV (bone formation rate per tissue volume) [2, 6]: 0.63 ± 0.09^ab %
BV/TV (bone volume per tissue volume) [2, 6]: 27.25 ± 1.14%
Calcein label [2, 6]: 48.08 ± 5.35^ab %
MAR (mineral apposition rate) [2, 6]: 1.29 ± 0.08 μm/day
Tetracycline label [2, 6]: 5.65 ± 2.48%
